Converted amounts (≈) assume the structure as drawn.
Tests used:
[1] = system: HePG 2 (human hepatocellular cancer cell line); assay: Tumor cell growth assay (sulforhodamine B), HePG 2; format: cell-based; conditions: for Remarks (% at 100 ppm): 48 h; for Inhibitory effect on in vitro growth (in words): 48 h exposure
Source text: Reagents: Fetal bovine serum (FBS) and L-glutamine were purchased from Gibco Invitrogen Co. (Scotland, UK). RPMI-1640 medium was from Cambrex (New Jersey, USA). Dimethyl sulfoxide (DMSO), doxorubicin, penicillin, streptomycin and sulforhodamine B (SRB) were from Sigma Chemical Co. (Saint Louis, USA).
Cell cultures: Three human tumor cell lines, HCT116 (colon cell line), HePG 2 (human hepatocellular carcinoma cell line), and MCF7 (human breast adenocarcinoma) were used. In vitro bioassay on human tumor cell lines were conducted and determined by the Bioassay-Cell Culture Laboratory, National Research Centre, El-Tahrir St., Dokki, Cairo 12622, Egypt. They grew as a monolayer and are routinely maintained in RPMI-1640 medium supplemented with 5% heat-inactivated FBS, 2 mM glutamine and antibiotics (penicillin 100 U/mL, streptomycin 100 μg/mL), at 37° C. in a humidified atmosphere containing 5% CO2. Exponentially growing cells were obtained by plating 1.5×10^5 cells/mL for MCF-7 and HCT116 and 0.75×10^4 cells/mL for HePG2, followed by 24 h of incubation. The effect of the vehicle solvent (DMSO) on the growth of these cell lines was evaluated in all experiments by exposing untreated control cells to the maximum concentration (0.5%) of DMSO used in each assay.
Tumor cell growth assay: The effect on the in vitro growth of human tumor cell lines was evaluated according to the procedure adopted by the National Cancer Institute (NCI, USA) in the ‘In vitro Anticancer Drug Discovery Screen’ that uses the protein-binding dye sulforhodamine B to assess cell growth. Briefly, cells growing in 96-well plates were then exposed for 48 h to five serial concentrations of each compound, starting from a maximum concentration of 78 μM (P. Skehan, R. Storeng, D. Scudiero, A. Monks, J. McMahon, D. Vistica, J. T. Warren, H. Bokesch, S. Kenney, M. R. Boyd, J. Natl. Cancer Inst., 82, 1107 (1990), incorporated herein by reference in its entirety). Following this exposure period adherent cells were fixed, washed, and stained. The bound stain was solubilized and the absorbance was measured at 492 nm in a plate reader (Bio-Tek Instruments Inc., Power wave XS, Wincoski, USA). For each test compound and cell line, a dose-response curve was obtained and the growth inhibition of 50% (GI50), corresponding to the concentration of the compounds that inhibited 50% of the net cell growth, was calculated as described elsewhere (A. Monks, D. Scudiero, P. Skehan, R. Shoemaker, K. Paull, D. Vistica, C. Hose, J. Langley, P. Cronise, A. Vaigro-Wolff, M. Gray-Goodrich, H. Campbell, J. Mayo, M. J. Boyd, Natl. Cancer Inst., 83, 757 (1991), incorporated herein by reference in its entirety). Doxorubicin was used as a positive control and tested in the same manner.

CCOC1Oc2ccccc2C(=O)C1=NNc1ccccc1OC (centres unmarked) [Compound 6b, 2-ethoxy-3-(2-(2-methoxyphenyl)hydrazono)chroman-4-one]
Remarks (% at 100 ppm) [1]: 56.1% at 100 ppm | melting point: 158 °C

CCOC1Oc2ccccc2C(=O)C1=NNc1ccc(Cl)cc1 (centres unmarked) [Compound 6c, 3-[(4-Chlorophenyl)hydrazono]-2-ethoxychroman-4-one]
Inhibitory effect on in vitro growth (in words) [1]: highest inhibitory effect | LC50 (concentration killing 50% of cells) ([1]; Homo sapiens, HepG2, death of 50% of cells in 48 hrs): 39 µg/mL | Remarks (% at 100 ppm) [1]: 94.2% at 100 ppm | LC90 ([1]; death of 90% of cells in 48 hrs): 68.9 µg/mL (≈ 208 µM)

Ethoxy-3-[(4-nitro-phenyl)-hydrazono]-chroman-one [Compound 6a]
Inhibitory effect on in vitro growth (in words) [1]: highest inhibitory effect | Remarks (% at 100 ppm) [1]: 45.3% at 100 ppm
